Patent publication US9682953B2, “Amide compounds, compositions and applications thereof” (Advinus Therapeutics Limited, priority 2011, dated 2017)
pIC50: −log10 of the molar value. Where two headings read alike, the source gives them in different places.

What was measured:
[1] = target: human Fatty Acid Amide Hydrolase (FAAH) (Homo sapiens (Human), UniProt O00519); test: biochemical
[2] = target: rat Fatty Acid Amide Hydrolase (FAAH) (Rattus norvegicus (Rat), UniProt P97612); test: FAAH in vitro fluorescence assay (AAMCA hydrolysis), rat enzyme; type: biochemical; settings: for inhibition at 0.1 µM: read-out: rFAAH % inhibition at 100 nM
Summary of the method: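 Rat FAAH, E. coli-expressed with groEL-groES chaperone, used as enriched membrane extract with 10 μM AAMCA in 50 mM HEPES, 1 mM EDTA, 0.1% BSA, pH 7.4 (1% DMSO final).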

[3] = human FAAH, read-out: hFAAH IC50

Sequence of rat Fatty Acid Amide Hydrolase (FAAH) (P97612 30-579): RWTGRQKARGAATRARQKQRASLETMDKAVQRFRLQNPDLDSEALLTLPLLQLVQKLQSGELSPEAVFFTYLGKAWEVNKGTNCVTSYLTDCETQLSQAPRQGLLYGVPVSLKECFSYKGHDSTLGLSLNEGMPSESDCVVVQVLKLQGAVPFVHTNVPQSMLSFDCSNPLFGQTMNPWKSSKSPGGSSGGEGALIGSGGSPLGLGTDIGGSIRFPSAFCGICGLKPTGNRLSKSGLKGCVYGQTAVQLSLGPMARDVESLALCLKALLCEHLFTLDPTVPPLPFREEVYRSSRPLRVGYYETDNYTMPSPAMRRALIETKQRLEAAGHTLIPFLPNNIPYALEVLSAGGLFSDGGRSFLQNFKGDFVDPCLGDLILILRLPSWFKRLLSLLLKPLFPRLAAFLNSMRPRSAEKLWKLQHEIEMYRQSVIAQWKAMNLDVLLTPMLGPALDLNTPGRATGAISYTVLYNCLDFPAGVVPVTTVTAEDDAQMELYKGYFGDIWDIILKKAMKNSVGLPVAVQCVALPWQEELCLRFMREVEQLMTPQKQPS
Sequence of human Fatty Acid Amide Hydrolase (FAAH) (O00519 30-579): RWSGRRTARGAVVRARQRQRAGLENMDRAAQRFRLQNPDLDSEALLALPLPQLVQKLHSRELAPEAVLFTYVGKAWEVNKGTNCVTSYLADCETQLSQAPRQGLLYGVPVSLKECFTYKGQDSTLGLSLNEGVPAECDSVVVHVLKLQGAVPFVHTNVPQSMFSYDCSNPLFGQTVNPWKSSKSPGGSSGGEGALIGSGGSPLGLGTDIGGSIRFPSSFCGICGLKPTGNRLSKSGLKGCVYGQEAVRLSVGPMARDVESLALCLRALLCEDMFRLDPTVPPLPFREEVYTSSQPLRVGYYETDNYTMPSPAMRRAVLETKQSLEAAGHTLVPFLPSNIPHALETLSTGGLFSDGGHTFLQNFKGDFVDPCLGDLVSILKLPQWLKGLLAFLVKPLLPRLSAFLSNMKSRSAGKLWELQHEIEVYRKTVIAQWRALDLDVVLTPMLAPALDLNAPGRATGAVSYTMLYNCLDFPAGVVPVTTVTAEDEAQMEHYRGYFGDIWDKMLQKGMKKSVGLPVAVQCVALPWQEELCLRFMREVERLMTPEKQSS

SMILES	pIC50 ([1]; read-out: hFAAH IC50)	pIC50 ([2]; rat FAAH, read-out: rFAAH IC50)	pIC50 [1, 3]	also measured
Nc1ncc(C(=O)NC2CCC(=Cc3cccc(Oc4ccc(C(F)(F)F)cn4)c3)CC2)cc1Cl (stereo not drawn) [Example 4.A-3, 6-Amino-5-chloro-N-[4-[[3-[[5-(trifluoromethyl)-2-pyridyl]oxy]phenyl]methylene]cyclohexyl]pyridine-3-carboxamide]	–	–	–	pIC50 ([1]; hFAAH IC50): 8.52; pIC50 [2]: 7.80
Cc1cncc(C(=O)NC2CCC(=Cc3cccc(Oc4ccc(C(F)(F)F)cn4)c3)CC2)c1 (stereo not drawn) [Example 2.A-30, 5-Methyl-N-[4-[[3-[[5-(trifluoromethyl)-2-pyridyl]oxy]phenyl]methylene]cyclohexyl]pyridine-3-carboxamide]	8.30	7.85	–	–
O=C(NC1CCC(=Cc2cccc(Oc3ccc(C(F)(F)F)cn3)c2)CC1)c1cncnc1 (stereo not drawn) [Example 2.A-12, N-[4-[[3-[[5-(Trifluoromethyl)-2-pyridyl]oxy]phenyl]methylene]cyclohexyl]pyrimidine-5-carboxamide]	8.52	7.00	–	–
CCc1nc(Oc2cccc(C=C3CCC(NC(=O)c4ccc(N)nc4)CC3)c2)ccc1C(F)(F)F (stereo not drawn) [Example 2.E-24, 6-Amino-N-[4-[[3-[[6-ethyl-5-(trifluoromethyl)-2-pyridyl]oxy]phenyl]methylene]cyclohexyl]pyridine-3-carboxamide]	–	–	7.47	inhibition at 0.1 µM ([2]; rat FAAH, 100 nM (tier I)): 47%
Cc1nc(Oc2cccc(C=C3CCC(NC(=O)c4cnc(N)nc4)CC3)c2)ccc1Cl (stereo not drawn) [Example 2.E-27, 2-Amino-N-[4-[[3-[(5-chloro-6-methyl-2-pyridyl)oxy]phenyl]methylene]cyclohexyl]pyrimidine-5-carboxamide]	–	7.77	9.00	–
N#Cc1nc(Oc2cccc(C=C3CCC(NC(=O)c4ccc(N)nc4)CC3)c2)ccc1C(F)(F)F (stereo not drawn) [Example 2.E-28, 6-Amino-N-[4-[[3-[[6-cyano-5-(trifluoromethyl)-2-pyridyl]oxy]phenyl]methylene]cyclohexyl]pyridine-3-carboxamide]	–	7.12	8.22	–
CCc1ccc(C(=O)NC2CCC(=Cc3cccc(Oc4ccc(C(F)(F)F)cn4)c3)CC2)cn1 (stereo not drawn) [Example 2.A-43, 6-Ethyl-N-[4-[[3-[[5-(trifluoromethyl)-2-pyridyl]oxy]phenyl]methylene]cyclohexyl]pyridine-3-carboxamide]	–	7.74	8.40	–
CC(CO)Nc1ccc(C(=O)NC2CCC(=Cc3cccc(Oc4ccc(C(F)(F)F)cn4)c3)CC2)cn1 (stereo not drawn) [Example 5.A-8, 6-[(2-Hydroxy-1-methyl-ethyl)amino]-N-[4-[[3-[[5-(trifluoromethyl)-2-pyridyl]oxy]phenyl]methylene]cyclohexyl]pyridine-3-carboxamide]	–	7.49	7.80	–
COc1ccc(C(=O)NC2CCC(=Cc3cccc(Oc4ccc(C(F)(F)F)cn4)c3)CC2)cn1 (stereo not drawn) [Example 2.C-2, 6-Methoxy-N-[4-[[3-[[5-(trifluoromethyl)-2-pyridyl]oxy]phenyl]methylene]cyclohexyl]pyridine-3-carboxamide]	8.30	7.68	–	–
O=C(NC1CCC(=Cc2cccc(Oc3ccc(C(F)(F)F)cn3)c2)CC1)c1cccnc1Cl (stereo not drawn) [Example 2.A-25, 2-Chloro-N-[4-[[3-[[5-(trifluoromethyl)-2-pyridyl]oxy]phenyl]methylene]cyclohexyl]pyridine-3-carboxamide]	7.80	–	–	rFAAH % inhibition at 100 nM ([2]; rat FAAH, 100 nM (tier I)): No inh at 100 nM
O=C(NC1CCC(=Cc2cccc(Oc3ccc(C(F)(F)F)cn3)c2)CC1)c1cncc(O)c1 (stereo not drawn) [Example 2.C-4, 5-Hydroxy-N-[4-[[3-[[5-(trifluoromethyl)-2-pyridyl]oxy]phenyl]methylene]cyclohexyl]pyridine-3-carboxamide]	–	7.68	8.40	–
O=C(NC1CCC(=Cc2cccc(Oc3ccc(C(F)(F)F)cn3)c2)CC1)c1c[nH]nc1C(F)(F)F (stereo not drawn) [Example 2.A-29, 3-(Trifluoromethyl)-N-[4-[[3-[[5-(trifluoromethyl)-2-pyridyl]oxy]phenyl]methylene]cyclohexyl]-1H-pyrazole-4-carboxamide]	8.52	7.62	–	–
N#Cc1ccc(C(=O)NC2CCC(=Cc3cccc(Oc4ccc(C(F)(F)F)cn4)c3)CC2)cn1 (stereo not drawn) [Example 2.A-27, 6-Cyano-N-[4-[[3-[[5-(trifluoromethyl)-2-pyridyl]oxy]phenyl]methylene]cyclohexyl]pyridine-3-carboxamide]	–	–	7.26	inhibition at 0.1 µM ([2]; rat FAAH, 100 nM (tier I)): 27%
O=C(NC1CCC(=Cc2cccc(Oc3ccc(C(F)(F)F)cn3)c2)CC1)c1c[nH]c2ccccc12 [Example 2.D-6, N-[4-[[3-[[5-(Trifluoromethyl)-2-pyridyl]oxy]phenyl]methylene]cyclohexyl]-1H-indole-3-carboxamide]	8.00	7.06	–	–
O=C(Nc1ncc(Cl)s1)C1CCC(=Cc2cccc(Oc3ccc(C(F)(F)F)cn3)c2)CC1 (stereo not drawn) [Example 1.1, N-(5-Chlorothiazol-2-yl)-4-[[3-[[5-(trifluoromethyl)-2-pyridyl]oxy]phenyl]methylene]cyclohexanecarboxamide]	–	7.22	7.80	–
